Source: ChEMBL document CHEMBL1201862, “PubChem BioAssay data set” (2004)
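Compound exposure: 48 hours, 5 concentrations, 96-well plates. The concentration for 50% growth inhibition is given as GI50.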 Calls of active or inactive are those of the source. No stated cut-off is given here; in the data, active = GI50 up to about 1.1 µM and inactive = higher.

Legend:
Experiment in all cases: DTP human tumour cell line panel, 48 h
[1] = tested on: SF-295
[2] = tested on: HCC 2998
[3] = tested on: M14
[4] = tested on: LOX IMVI
[5] = tested on: HOP-92
[6] = tested on: A549
[7] = tested on: UACC-62
[8] = tested on: OVCAR-3
[9] = tested on: SF-268
[10] = tested on: NCI-H23
[11] = tested on: EKVX
[12] = tested on: SNB-75
[13] = tested on: SN12C
[14] = tested on: IGROV-1
[15] = tested on: Malme-3M
[16] = tested on: SF-539
[17] = tested on: SR
[18] = tested on: NCI-H522

Measured: GI50

CCOC(=O)C12CN(C34CC5CC(CC(C5)C3)C4)CC(C(=O)OCC)(C1=O)C(c1ccccc1)OC2c1ccccc1 (centres undefined)
inactive: [1] > 100 µM | [2] > 100 µM | [3] > 100 µM | [4] 3.54 µM | [5] 2.04 µM | [6] > 100 µM | [7] > 100 µM | [8] > 100 µM | [9] > 100 µM | [10] 47.4 µM | [11] > 100 µM | [12] 39.7 µM | [13] > 10 µM | [14] > 100 µM | [15] > 100 µM | [16] > 10 µM

CCOC(=O)C(C(CC(=O)OC)NC(=O)OCc1ccccc1)C1(C)OCCO1 (centres undefined)
inactive: [1] > 100 µM | [2] > 100 µM | [3] > 100 µM | [4] > 100 µM | [17] > 100 µM | [6] > 100 µM | [7] > 100 µM | [8] > 100 µM | [9] > 100 µM | [10] > 100 µM | [11] > 100 µM | [12] 41.1 µM | [13] > 100 µM | [14] > 100 µM | [15] > 100 µM | [16] > 100 µM

CCCCN(CCCC)C(=Nc1ccccc1)N(CCCC)CCCC
inactive: [1] 5.38 µM | [2] 4.32 µM | [4] 3.15 µM | [5] 1.62 µM | [6] 7.62 µM | [8] 3.3 µM | [9] 11.2 µM | [10] 2.19 µM | [11] 4.35 µM | [12] 16.4 µM | [18] 2.17 µM | [14] 3.15 µM | [15] 7.94 µM | [16] 11.4 µM

Cc1c(-c2coc(-c3ccc([N+](=O)[O-])cc3)n2)c(=O)n(-c2ccccc2)n1C
inactive: [1] > 100 µM | [2] > 100 µM | [3] > 100 µM | [4] > 100 µM | [5] > 100 µM | [6] > 100 µM | [7] > 100 µM | [8] > 100 µM | [9] > 100 µM | [10] > 100 µM | [11] > 100 µM | [12] > 100 µM | [18] > 100 µM | [13] > 100 µM | [14] > 100 µM | [15] > 100 µM | [16] > 100 µM

Cc1ccc(NC(=O)OCC(COc2ccc(Cl)cc2Cl)OC(=O)Nc2ccc(C)cc2)cc1 (centres undefined)
inactive: [1] > 100 µM | [2] > 100 µM | [3] > 100 µM | [5] 53.7 µM | [6] > 100 µM | [7] > 100 µM | [8] 80.2 µM | [9] > 100 µM | [10] > 100 µM | [11] > 100 µM | [12] 27 µM | [13] > 100 µM | [14] > 100 µM | [15] > 100 µM | [16] 89.5 µM

CC(=O)OCCOCBr
inactive: [1] > 100 µM | [3] > 100 µM | [4] > 100 µM | [5] > 100 µM | [6] > 100 µM | [7] > 100 µM | [8] > 100 µM | [9] > 100 µM | [11] > 100 µM | [12] > 100 µM | [18] > 100 µM | [13] > 100 µM | [14] > 100 µM | [15] > 100 µM | [16] > 100 µM

COc1ccccc1NC(=O)CC(=O)n1nc(C)c(/N=N/c2ccccc2C(=O)O)c1C
inactive: [1] > 100 µM | [2] > 100 µM | [3] > 100 µM | [4] > 100 µM | [6] > 100 µM | [7] 59.7 µM | [8] 73.1 µM | [9] > 100 µM | [10] 88.9 µM | [11] 29.6 µM | [12] 32.1 µM | [18] 43.9 µM | [13] > 100 µM | [14] > 100 µM | [15] > 100 µM | [16] > 100 µM

Cc1ccc(/C=N/NS(=O)(=O)c2ccccc2)cc1C
inactive: [1] 45.7 µM | [2] > 100 µM | [3] > 100 µM | [4] 88.1 µM | [5] > 100 µM | [17] 86.7 µM | [6] > 100 µM | [7] 98.9 µM | [8] > 100 µM | [9] > 100 µM | [10] > 100 µM | [11] > 100 µM | [12] > 100 µM | [13] > 100 µM | [14] 51.5 µM | [15] > 100 µM | [16] > 100 µM

CC(=O)OCCC(O[Si](c1ccccc1)(c1ccccc1)C(C)(C)C)C(C)(C)O (centres undefined)
inactive: [1] 21.6 µM | [3] 39 µM | [4] 24 µM | [5] 24.6 µM | [6] 34.5 µM | [7] 53.8 µM | [8] 21 µM | [9] 38.5 µM | [10] 24.7 µM | [11] 48.4 µM | [12] 35.6 µM | [18] 20 µM | [13] 18.3 µM | [14] 36.3 µM | [15] > 100 µM | [16] 25.4 µM

O=C(CC1(O)C(=O)Nc2ccccc21)c1ccc(Cl)cc1Cl (centres undefined)
inactive: [1] > 100 µM | [3] > 100 µM | [4] > 100 µM | [5] > 100 µM | [6] > 100 µM | [7] > 100 µM | [8] > 100 µM | [9] > 100 µM | [10] > 100 µM | [11] > 100 µM | [12] > 100 µM | [18] > 100 µM | [13] > 100 µM | [14] > 100 µM | [15] > 100 µM | [16] > 100 µM

COC(=O)c1nc(NC#N)nc(O)c1C
inactive: [1] > 100 µM | [2] > 100 µM | [3] > 100 µM | [4] > 100 µM | [5] 50.2 µM | [6] > 89.5 µM | [7] > 61.1 µM | [8] > 100 µM | [9] > 78.9 µM | [10] > 78.7 µM | [11] > 100 µM | [12] > 53.3 µM | [18] > 80.4 µM | [13] > 100 µM | [14] > 72.9 µM | [15] > 100 µM | [16] > 55.8 µM

N#CC(C(=O)CCC(=O)Nc1ccc(Cl)c(Cl)c1)c1ccc(Cl)cc1 (centres undefined)
inactive: [1] 69.5 µM | [2] > 100 µM | [3] 51.4 µM | [4] > 100 µM | [5] 80.9 µM | [6] 84.9 µM | [7] 11.6 µM | [8] > 100 µM | [9] > 100 µM | [10] > 100 µM | [11] > 100 µM | [12] 51.1 µM | [13] > 100 µM | [14] 80 µM | [15] > 100 µM | [16] > 100 µM

CCOc1ccc(NC(=O)C2=C(C)NC(C)=C(C(=O)Nc3ccc(OCC)cc3)C2c2ccc([N+](=O)[O-])cc2)cc1
inactive: [1] 38 µM | [2] 22.1 µM | [3] 23.7 µM | [4] 42 µM | [5] 12.9 µM | [6] 17.9 µM | [8] 30.3 µM | [9] 27.4 µM | [10] 28.2 µM | [11] 29 µM | [12] 29.4 µM | [18] 22.6 µM | [13] 42.9 µM | [14] 49 µM | [15] 24.4 µM | [16] 24.3 µM

O=C(Nc1ccccc1-c1nn(C(=S)Nc2ccccc2)c(=S)n(C(=S)Nc2ccccc2)c1=O)C(F)(F)F
inactive: [1] 31.3 µM | [2] 25.3 µM | [3] 20.4 µM | [4] 19.8 µM | [5] 12.8 µM | [6] 24.4 µM | [7] 17.3 µM | [8] 21.6 µM | [9] 26.5 µM | [10] 15.5 µM | [11] 27.6 µM | [12] 31.1 µM | [18] 13.6 µM | [13] 26.4 µM | [14] 21.5 µM | [15] 30.5 µM | [16] 36.1 µM

O=C1C2CCC(C2)C12CC1(c3ccccc3)C(=O)c3ccccc3N1O2 (centres undefined)
inactive: [1] 94.6 µM | [2] > 100 µM | [3] > 100 µM | [5] 42.7 µM | [17] 67.5 µM | [6] > 100 µM | [7] 91.8 µM | [9] > 100 µM | [10] > 100 µM | [11] > 100 µM | [12] > 100 µM | [18] > 100 µM | [13] > 100 µM | [14] > 100 µM | [15] > 100 µM | [16] > 100 µM

C[C@@H](NC1CCCC[C@@H]1O)c1ccccc1 (some centres undefined)
inactive: [1] > 100 µM | [2] > 100 µM | [3] > 100 µM | [4] > 100 µM | [5] > 100 µM | [6] > 100 µM | [7] > 100 µM | [8] > 100 µM | [11] > 100 µM | [12] 98.4 µM | [13] > 100 µM | [14] > 100 µM | [15] > 100 µM

CC/C=C/c1cc2cc[nH]c2c2c1C(C)C[C@@H]2C (some centres undefined)
inactive: [1] 24.4 µM | [2] > 10 µM | [3] 28.1 µM | [4] 17.1 µM | [5] 24.2 µM | [6] 35.9 µM | [7] 17.8 µM | [8] 18.9 µM | [10] 21.4 µM | [11] 43.2 µM | [12] 27.4 µM | [18] 18.1 µM | [13] 18.9 µM | [14] 40.4 µM | [15] > 100 µM | [16] 21.8 µM
